pIC50: −log10 of the molar value.
What follows are molecules tested against T1, AHR (UniProt P35869) (assay: DRE-Luciferase Reporter Assay (Alternate Method) (Example 1B)). Conditions: cell line and AHR activating ligand not specified.
T1 construct: IC50
T1 sequence (P35869 1-848): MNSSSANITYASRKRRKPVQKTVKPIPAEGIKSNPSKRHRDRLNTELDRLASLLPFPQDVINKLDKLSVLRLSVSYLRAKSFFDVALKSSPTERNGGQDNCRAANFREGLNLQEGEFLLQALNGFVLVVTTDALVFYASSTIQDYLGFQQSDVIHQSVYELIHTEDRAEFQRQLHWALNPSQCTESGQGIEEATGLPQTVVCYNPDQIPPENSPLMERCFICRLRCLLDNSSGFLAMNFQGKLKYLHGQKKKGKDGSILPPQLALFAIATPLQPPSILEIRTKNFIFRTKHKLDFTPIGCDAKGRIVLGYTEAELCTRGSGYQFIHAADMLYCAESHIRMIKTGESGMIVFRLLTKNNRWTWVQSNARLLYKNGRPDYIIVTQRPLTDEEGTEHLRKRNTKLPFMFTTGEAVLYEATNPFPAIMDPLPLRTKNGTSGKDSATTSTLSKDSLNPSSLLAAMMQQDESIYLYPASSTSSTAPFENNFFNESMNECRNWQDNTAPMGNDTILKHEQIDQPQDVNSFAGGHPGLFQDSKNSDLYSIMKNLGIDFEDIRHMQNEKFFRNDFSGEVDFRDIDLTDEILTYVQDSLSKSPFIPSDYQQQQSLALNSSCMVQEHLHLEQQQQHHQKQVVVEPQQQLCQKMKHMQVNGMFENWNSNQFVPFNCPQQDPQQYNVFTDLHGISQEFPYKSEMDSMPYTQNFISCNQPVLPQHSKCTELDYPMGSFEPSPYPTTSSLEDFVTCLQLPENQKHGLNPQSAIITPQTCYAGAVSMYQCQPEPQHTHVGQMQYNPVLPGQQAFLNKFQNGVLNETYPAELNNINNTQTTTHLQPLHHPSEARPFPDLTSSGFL
Assay type: cell-based, murine or human
Method: AHR binds to Dioxin Responsive Elements (DRE) upstream of genes that it activates. One measure of AHR activity is activation of a reporter gene, such as luciferase, downstream of one or multiple DRE elements. Luciferase activity will reflect activation and inhibition of AHR in the cells expressing his reporter.
Murine Hepa1-6 or Hepa-1c1c7 or other murine cell line with a DRE-luciferase reporter either stably or transiently transfected were plated in media in plates (96-well, 384-well or other plates) and incubated overnight at 37° C. in a CO2 incubator or compound and agonist were added at the time of plating. Likewise, human HepG2 or other human cell line with a DRE-luciferase reporter either stably or transiently transfected were plated in media in plates (96-well, 384-well or other plates) and incubated overnight at 37° C. in a CO2 incubator or compound and agonist were added at the time of plating.
At the time that cells are plated or following incubation overnight, an AHR activating ligand, such as TCDD, kynurenine, ITE (2-(1H-indole-3-ylcarbonyl)-4-thiazolecarboxylic methyl ester), VAF347, BNF (beta-naphthoflavone), FICZ (6-formylindolo(3,2-b) carbazole or other AHR ligands, was added with or without AHR antagonist.
Cells were incubated for 4, 15 or 24 hours or another time point and then lysed for determination of luciferase activity as a read-out of the AHR activation or inhibition. Luciferase was measured with a commercial kit such as the Promega Luciferase kit or any kit or reagents that provide the luciferin substrate for measuring luciferase activity. The level of luciferase with only activating ligand added was the maximum signal while the luciferase with no ligand was the minimum signal. IC50 values were determined as the concentration which inhibits half of the luciferase activity.

Structure (SMILES)	pIC50
Fc1cncc(-c2cc(NC3Cc4cc5c(cc4C3)OCO5)n3nccc3n2)c1 [I-50, N-(6,7-Dihydro-5H-cyclopenta[f][1,3]benzodioxol-6-yl)-5-(5-fluoro-3-pyridyl)pyrazolo[1,5-a]pyrimidin-7-amine]	< 5.82
Oc1ccc2c(c1)CC(Nc1cc(-c3cncc(F)c3)nc3ccnn13)C2 (stereo not shown) [I-52, 2-[[5-(5-Fluoro-3-pyridyl)pyrazolo[1,5-a]pyrimidin-7-yl]amino]indan-5-ol]	6.00 to 6.30
N#Cc1cncc(-c2nc(NCCc3c[nH]c4ccccc34)cc(OC3CCCC3)n2)c1 [I-53, 5-[4-(Cyclopentoxy)-6-[2-(1H-indol-3-yl)ethylamino]pyrimidin-2-yl]pyridine-3-carbonitrile]	> 6.30
O=C(c1cnn2c(NCCc3c[nH]c4ccccc34)cc(-c3cncc(F)c3)nc12)N1CCNCC1 [I-58, [5-(5-Fluoro-3-pyridyl)-7-[2-(1H-indol-3-yl)ethylamino]pyrazolo[1,5-a]pyrimidin-3-yl]-piperazin-1-yl-methanone]	< 5.82
Fc1cncc(-c2nc(NCCc3c[nH]c4ccccc34)cc(N3CCNCC3)n2)c1 [I-60, 2-(5-Fluoro-3-pyridyl)-N-[2-(1H-indol-3-yl)ethyl]-6-piperazin-1-yl-pyrimidin-4-amine]	6.00 to 6.30
Fc1cncc(-c2nc(NCCc3c[nH]c4ccccc34)cc(N3CCOCC3)n2)c1 [I-64, 2-(5-Fluoro-3-pyridyl)-N-[2-(1H-indol-3-yl)ethyl]-6-morpholino-pyrimidin-4-amine]	> 6.30
Cc1[nH]c2c(F)cccc2c1CCNc1cc(-c2cncc(F)c2)nc2c(C(C)C)cnn12 [I-66, N-[2-(7-fluoro-2-methyl-1H-indol-3-yl)ethyl]-5-(5-fluoro-3-pyridyl)-3-isopropyl-pyrazolo[1,5-a]pyrimidin-7-amine]	> 6.30
Cc1[nH]c2ccc(F)cc2c1CCNc1nc(-c2cncc(F)c2)nc2c1ncn2C(C)C [I-69, N-[2-(5-Fluoro-2-methyl-1H-indol-3-yl)ethyl]-2-(5-fluoro-3-pyridyl)-9-isopropyl-purin-6-amine]	> 6.30

More lines, now with the values ahead:

pIC50	Structure (SMILES)
> 6.30	Oc1ccc(CCNc2cc(-c3cncc(F)c3)nc3ccnn23)cc1 [I-49, 4-[2-[[5-(5-Fluoro-3-pyridyl)pyrazolo[1,5-a]pyrimidin-7-yl]amino]ethyl]phenol]
> 6.30	Cc1cnn2c(NC3Cc4ccc(O)cc4C3)cc(-c3cncc(F)c3)nc12 (stereo not shown) [I-51, 2-[[5-(5-Fluoro-3-pyridyl)-3-methyl-pyrazolo[1,5-a]pyrimidin-7-yl]amino]indan-5-ol]
> 6.30	CC(C)Oc1cc(NCCc2c[nH]c3ccccc23)nc(-c2cncc(C#N)c2)n1 [I-54, 5-[4-[2-(1H-indol-3-yl)ethylamino]-6-isopropoxy-pyrimidin-2-yl]pyridine-3-carbonitrile]
> 6.30	O=C(c1cnn2c(NCCc3c[nH]c4ccccc34)cc(-c3cncc(F)c3)nc12)N1CCCCC1 [I-55, [5-(5-Fluoro-3-pyridyl)-7-[2-(1H-indol-3-yl)ethylamino]pyrazolo[1,5-a]pyrimidin-3-yl]-(1-piperidyl)methanone]
> 6.30	CN(C)C(=O)c1cnn2c(NCCc3c[nH]c4ccccc34)cc(-c3cncc(F)c3)nc12 [I-56, 5-(5-Fluoro-3-pyridyl)-7-[2-(1H-indol-3-yl)ethylamino]-N,N-dimethyl-pyrazolo[1,5-a]pyrimidine-3-carboxamide]
> 6.30	CNC(=O)c1cnn2c(NCCc3c[nH]c4ccccc34)cc(-c3cncc(F)c3)nc12 [I-61, 5-(5-Fluoro-3-pyridyl)-7-[2-(1H-indol-3-yl)ethylamino]-N-methyl-pyrazolo[1,5-a]pyrimidine-3-carboxamide]
> 6.30	Fc1cncc(-c2nc(NCCc3c[nH]c4ccccc34)cc(N3CCCCC3)n2)c1 [I-62, 2-(5-Fluoro-3-pyridyl)-N-[2-(1H-indol-3-yl)ethyl]-6-(1-piperidyl)pyrimidin-4-amine]
> 6.30	CN(C)c1cc(NCCc2c[nH]c3ccccc23)nc(-c2cncc(F)c2)n1 [I-63, 2-(5-Fluoro-3-pyridyl)-N6-[2-(1H-indol-3-yl)ethyl]-N4,N4-dimethyl-pyrimidine-4,6-diamine]
